Laboratory results reported in ChEMBL document CHEMBL4385643, “Design of a brain-penetrant CDK4/6 inhibitor for glioblastoma” (Bioorg Med Chem Lett, 2019).

What was measured:
[1] = target: LIM domain kinase 1 (Homo sapiens) (UniProt P53667); assay: Inhibition of tracer 236 binding to recombinant human His-tagged LIMK1 catalytic domain (285 to 638 residues) expressed in baculovirus expression system at 0.1 uM measured after 60 mins by Lanthascreen assay relative to control
[2] = target: Mitogen-activated protein kinase 13 (Homo sapiens) (UniProt O15264); assay: Inhibition of recombinant full length human His-tagged p38delta expressed in baculovirus expression system at 0.1 uM using serine/threonine-3 peptide as substrate incubated for 60 mins by Z'-LYTE assay relative to control
[3] = target: RAC-alpha serine/threonine-protein kinase (Homo sapiens) (UniProt P31749); assay: Inhibition of recombinant full length human His-tagged AKT1 expressed in baculovirus expression system at 0.1 uM using serine/threonine-06 peptide as substrate incubated for 60 mins by Z'-LYTE assay relative to control
[4] = target: Protein kinase C zeta type (Homo sapiens) (UniProt Q05513); assay: Inhibition of recombinant full length human PKCzeta expressed in baculovirus expression system at 0.1 uM using serine/threonine-7 peptide as substrate incubated for 60 mins by Z'-LYTE assay relative to control
[5] = target: MAP kinase-activated protein kinase 2 (Homo sapiens) (UniProt P49137); assay: Inhibition of recombinant full length human His-tagged MAPKAPK2 expressed in Escherichia coli expression system at 0.1 uM using serine/threonine-4 peptide as substrate incubated for 60 mins by Z'-LYTE assay relative to control
[6] = target: Casein kinase I isoform epsilon (Homo sapiens) (UniProt P49674); assay: Inhibition of recombinant full length human His-tagged CK1 epsilon1 expressed in baculovirus expression system at 0.1 uM using serine/threonine-11 peptide as substrate incubated for 60 mins by Z'-LYTE assay relative to control
[7] = target: Cyclin-dependent kinase 5/CDK5 activator 1 (Homo sapiens) (UniProt Q00535+Q15078); assay: Inhibition of recombinant full length human GST/His-tagged CDK5/p25 expressed in baculovirus expression system at 0.1 uM using serine/threonine-12 peptide as substrate incubated for 60 mins by Z'-LYTE assay relative to control
[8] = target: 5'-AMP-activated protein kinase catalytic subunit alpha-1 (Homo sapiens) (UniProt Q13131); assay: Inhibition of recombinant full length human PRKAA1 expressed in baculovirus expression system at 0.1 uM using CREBtide as substrate 60 mins by Lanthascreen assay relative to control
[9] = target: Sphingosine kinase 1 (Homo sapiens) (UniProt Q9NYA1); assay: Inhibition of recombinant full length human GST-tagged SPHK1 expressed in baculovirus expression system at 0.1 uM using Sphingosine Lipid as substrate incubated for 60 mins by Adapta assay relative to control
[10] = target: Interleukin-1 receptor-associated kinase 4 (Homo sapiens) (UniProt Q9NWZ3); assay: Inhibition of recombinant full length human His-tagged IRAK4 expressed in baculovirus expression system at 0.1 uM using serine/threonine-7 peptide as substrate incubated for 60 mins by Z'-LYTE assay relative to control
[11] = target: Serine/threonine-protein kinase PAK 4 (Homo sapiens) (UniProt O96013); assay: Inhibition of recombinant human GST-tagged PAK4 catalytic domain (295 to 591 residues) expressed in baculovirus expression system at 0.1 uM using serine/threonine-20 peptide as substrate incubated for 60 mins by Z'-LYTE assay relative to control
[12] = target: High affinity nerve growth factor receptor (Homo sapiens) (UniProt P04629); assay: Inhibition of recombinant human His-tagged TRKA catalytic domain (441 to 796 residues) expressed in baculovirus expression system at 0.1 uM using tyrosine-1 peptide as substrate incubated for 60 mins by Z'-LYTE assay relative to control
[13] = target: Insulin receptor-related protein (Homo sapiens) (UniProt P14616); assay: Inhibition of recombinant human GST-tagged IRR (944 to 1297 residues) expressed in baculovirus expression system at 0.1 uM using tyrosine-4 peptide as substrate incubated for 60 mins by Z'-LYTE assay relative to control
[14] = target: Non-receptor tyrosine-protein kinase TYK2 (Homo sapiens) (UniProt P29597); assay: Inhibition of recombinant human GST-tagged TYK2 catalytic domain (833 to 1187 residues) expressed in baculovirus expression system at 0.1 uM using tyrosine-3 peptide as substrate incubated for 60 mins by Z'-LYTE assay relative to control
[15] = target: Dual specificity protein kinase TTK (Homo sapiens) (UniProt P33981); assay: Inhibition of tracer 236 binding to recombinant full length human GST-tagged TTK expressed in baculovirus expression system at 0.1 uM measured after 60 mins by Lanthascreen assay
[16] = target: Vascular endothelial growth factor receptor 2 (Homo sapiens) (UniProt P35968); assay: Inhibition of recombinant human His-tagged KDR (789 to 1356 residues) expressed in baculovirus expression system at 0.1 uM using tyrosine-1 peptide as substrate incubated for 60 mins by Z'-LYTE assay relative to control
[17] = target: Serine/threonine-protein kinase MRCK alpha (Homo sapiens) (UniProt Q5VT25); assay: Inhibition of recombinant human His-tagged MRCKalpha catalytic domain (1 to 473 residues) expressed in baculovirus expression system at 0.1 uM using serine/threonine-13 peptide as substrate incubated for 60 mins by Z'-LYTE assay relative to control
[18] = target: Aurora kinase B (Homo sapiens) (UniProt Q96GD4); assay: Inhibition of recombinant full length human His-tagged Aurora B expressed in baculovirus expression system at 0.1 uM using serine/threonine-1 peptide as substrate incubated for 60 mins by Z'-LYTE assay relative to control
[19] = target: Dual specificity protein kinase CLK4 (Homo sapiens) (UniProt Q9HAZ1); assay: Inhibition of tracer 236 binding to recombinant full length human GST-tagged CLK4 expressed in baculovirus expression system at 0.1 uM measured after 60 mins by Lanthascreen assay relative to control
[20] = target: Tyrosine-protein kinase Fgr (Homo sapiens) (UniProt P09769); assay: Inhibition of recombinant full length human His-tagged FGR expressed in baculovirus expression system at 0.1 uM using tyrosine-2 peptide as substrate incubated for 60 mins by Z'-LYTE assay relative to control
[21] = target: Serine/threonine-protein kinase PAK 3 (Homo sapiens) (UniProt O75914); assay: Inhibition of recombinant full length human His-tagged PAK3 expressed in baculovirus expression system at 0.1 uM using serine/threonine-20 peptide as substrate incubated for 60 mins by Z'-LYTE assay relative to control
[22] = target: Eukaryotic elongation factor 2 kinase (Homo sapiens) (UniProt O00418); assay: Inhibition of recombinant full length human GST-tagged EEF2K expressed in Escherichia coli expression system at 0.1 uM using serine/threonine-24 peptide as substrate incubated for 60 mins by Z'-LYTE assay relative to control
[23] = target: Mitogen-activated protein kinase 9 (Homo sapiens) (UniProt P45984); assay: Inhibition of recombinant full length human His-tagged JNK2 expressed in baculovirus expression system at 0.1 uM using serine/threonine-4 peptide as substrate incubated for 60 mins by Z'-LYTE assay relative to control

Chain of Interleukin-1 receptor-associated kinase 4 (Homo sapiens) (Q9NWZ3 whole entry, the tested form may be a part): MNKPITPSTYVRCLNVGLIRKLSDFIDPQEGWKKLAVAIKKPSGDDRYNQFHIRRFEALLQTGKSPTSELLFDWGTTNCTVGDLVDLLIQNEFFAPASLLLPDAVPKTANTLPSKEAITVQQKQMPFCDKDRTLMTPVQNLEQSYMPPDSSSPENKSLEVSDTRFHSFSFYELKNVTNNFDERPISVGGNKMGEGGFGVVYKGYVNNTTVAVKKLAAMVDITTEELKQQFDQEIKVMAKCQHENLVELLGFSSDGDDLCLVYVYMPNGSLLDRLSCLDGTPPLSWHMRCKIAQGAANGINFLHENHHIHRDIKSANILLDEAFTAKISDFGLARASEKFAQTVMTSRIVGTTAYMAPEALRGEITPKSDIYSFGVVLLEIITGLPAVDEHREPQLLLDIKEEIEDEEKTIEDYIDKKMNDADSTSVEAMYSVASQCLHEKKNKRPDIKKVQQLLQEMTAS
Chain of Casein kinase I isoform epsilon (Homo sapiens) (P49674 whole entry, looked up, canonical isoform): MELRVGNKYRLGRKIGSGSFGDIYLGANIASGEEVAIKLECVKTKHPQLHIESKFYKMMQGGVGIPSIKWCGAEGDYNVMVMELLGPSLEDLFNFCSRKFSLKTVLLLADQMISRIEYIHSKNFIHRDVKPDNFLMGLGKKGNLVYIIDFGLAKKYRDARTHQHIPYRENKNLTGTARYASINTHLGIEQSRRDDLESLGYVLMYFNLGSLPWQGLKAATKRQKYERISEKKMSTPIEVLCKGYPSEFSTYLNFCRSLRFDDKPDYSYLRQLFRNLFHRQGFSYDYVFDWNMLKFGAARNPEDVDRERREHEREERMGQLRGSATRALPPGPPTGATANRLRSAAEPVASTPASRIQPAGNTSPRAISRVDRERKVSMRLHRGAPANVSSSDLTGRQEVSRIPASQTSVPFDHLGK
Chain of Serine/threonine-protein kinase PAK 3 (Homo sapiens) (O75914 whole entry, looked up): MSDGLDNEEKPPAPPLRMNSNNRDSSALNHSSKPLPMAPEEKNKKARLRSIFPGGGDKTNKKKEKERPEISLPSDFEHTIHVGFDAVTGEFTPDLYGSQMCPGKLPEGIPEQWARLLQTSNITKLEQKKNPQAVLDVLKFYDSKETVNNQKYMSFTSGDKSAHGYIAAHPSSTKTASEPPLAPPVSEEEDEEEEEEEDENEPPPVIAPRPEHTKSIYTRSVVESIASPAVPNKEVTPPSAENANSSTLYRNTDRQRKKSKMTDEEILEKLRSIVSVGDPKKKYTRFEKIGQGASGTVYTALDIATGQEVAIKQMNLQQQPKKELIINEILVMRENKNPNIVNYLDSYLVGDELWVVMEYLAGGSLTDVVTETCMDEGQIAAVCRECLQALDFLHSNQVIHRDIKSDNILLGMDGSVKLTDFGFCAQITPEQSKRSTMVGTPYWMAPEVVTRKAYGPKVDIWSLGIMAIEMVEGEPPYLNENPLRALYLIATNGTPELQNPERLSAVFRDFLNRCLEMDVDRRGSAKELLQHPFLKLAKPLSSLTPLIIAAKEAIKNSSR
Chain of Aurora kinase B (Homo sapiens) (Q96GD4 whole entry): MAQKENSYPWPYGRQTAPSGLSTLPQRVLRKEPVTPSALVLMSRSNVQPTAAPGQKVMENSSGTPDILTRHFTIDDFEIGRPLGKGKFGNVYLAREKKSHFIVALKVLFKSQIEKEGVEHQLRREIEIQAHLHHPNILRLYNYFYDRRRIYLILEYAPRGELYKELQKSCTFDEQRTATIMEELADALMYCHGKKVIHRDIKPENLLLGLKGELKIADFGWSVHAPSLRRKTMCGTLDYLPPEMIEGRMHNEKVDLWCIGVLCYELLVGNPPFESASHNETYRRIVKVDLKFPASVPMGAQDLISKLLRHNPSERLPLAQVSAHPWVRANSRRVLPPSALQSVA
Chain of Non-receptor tyrosine-protein kinase TYK2 (Homo sapiens) (P29597 whole entry, the tested form may be a part): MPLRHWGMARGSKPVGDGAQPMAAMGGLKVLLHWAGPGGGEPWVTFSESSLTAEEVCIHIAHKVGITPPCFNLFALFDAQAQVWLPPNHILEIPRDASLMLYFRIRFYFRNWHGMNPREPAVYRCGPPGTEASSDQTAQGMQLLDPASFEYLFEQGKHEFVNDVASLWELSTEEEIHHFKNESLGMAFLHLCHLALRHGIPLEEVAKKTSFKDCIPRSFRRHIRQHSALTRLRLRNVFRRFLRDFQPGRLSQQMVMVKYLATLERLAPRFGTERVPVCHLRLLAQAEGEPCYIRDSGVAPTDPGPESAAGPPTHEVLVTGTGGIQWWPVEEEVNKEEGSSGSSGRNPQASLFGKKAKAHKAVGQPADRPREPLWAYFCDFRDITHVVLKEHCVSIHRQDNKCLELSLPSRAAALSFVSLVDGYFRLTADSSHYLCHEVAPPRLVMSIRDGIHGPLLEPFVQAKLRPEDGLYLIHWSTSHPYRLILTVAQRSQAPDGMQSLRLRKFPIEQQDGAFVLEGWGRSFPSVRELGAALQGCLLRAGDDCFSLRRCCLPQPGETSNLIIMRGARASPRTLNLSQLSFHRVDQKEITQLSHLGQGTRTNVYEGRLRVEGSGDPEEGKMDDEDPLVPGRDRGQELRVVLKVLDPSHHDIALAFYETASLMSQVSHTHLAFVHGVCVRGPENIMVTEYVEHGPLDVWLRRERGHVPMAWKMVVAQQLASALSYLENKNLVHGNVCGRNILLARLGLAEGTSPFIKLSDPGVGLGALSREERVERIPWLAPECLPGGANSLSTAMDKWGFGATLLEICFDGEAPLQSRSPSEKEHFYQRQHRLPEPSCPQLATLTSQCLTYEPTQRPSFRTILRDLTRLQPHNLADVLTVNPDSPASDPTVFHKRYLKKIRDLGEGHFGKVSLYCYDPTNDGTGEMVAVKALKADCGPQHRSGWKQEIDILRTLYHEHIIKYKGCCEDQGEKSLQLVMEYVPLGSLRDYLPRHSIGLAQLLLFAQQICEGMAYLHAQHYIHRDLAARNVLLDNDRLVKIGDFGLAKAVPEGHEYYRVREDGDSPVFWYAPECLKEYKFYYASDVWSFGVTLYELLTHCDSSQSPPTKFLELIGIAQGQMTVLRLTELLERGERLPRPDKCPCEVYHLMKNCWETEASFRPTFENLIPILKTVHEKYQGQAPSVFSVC
Chain of 5'-AMP-activated protein kinase catalytic subunit alpha-1 (Homo sapiens) (Q13131 whole entry, looked up): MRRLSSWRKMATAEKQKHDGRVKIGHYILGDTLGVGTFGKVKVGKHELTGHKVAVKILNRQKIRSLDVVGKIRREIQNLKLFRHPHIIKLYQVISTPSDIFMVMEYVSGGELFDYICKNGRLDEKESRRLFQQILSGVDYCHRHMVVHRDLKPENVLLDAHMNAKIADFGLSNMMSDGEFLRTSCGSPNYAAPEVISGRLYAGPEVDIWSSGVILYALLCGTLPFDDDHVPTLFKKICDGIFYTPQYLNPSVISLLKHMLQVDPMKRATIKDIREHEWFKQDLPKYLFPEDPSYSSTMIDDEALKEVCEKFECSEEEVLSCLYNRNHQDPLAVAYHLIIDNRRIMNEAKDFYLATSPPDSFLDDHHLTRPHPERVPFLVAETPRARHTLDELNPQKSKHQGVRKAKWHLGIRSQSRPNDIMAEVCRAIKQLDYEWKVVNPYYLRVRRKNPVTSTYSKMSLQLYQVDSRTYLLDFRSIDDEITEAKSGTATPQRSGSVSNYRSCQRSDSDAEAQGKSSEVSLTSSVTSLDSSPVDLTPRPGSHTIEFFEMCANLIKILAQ
Chain of Tyrosine-protein kinase Fgr (Homo sapiens) (P09769 2-529 limits assumed): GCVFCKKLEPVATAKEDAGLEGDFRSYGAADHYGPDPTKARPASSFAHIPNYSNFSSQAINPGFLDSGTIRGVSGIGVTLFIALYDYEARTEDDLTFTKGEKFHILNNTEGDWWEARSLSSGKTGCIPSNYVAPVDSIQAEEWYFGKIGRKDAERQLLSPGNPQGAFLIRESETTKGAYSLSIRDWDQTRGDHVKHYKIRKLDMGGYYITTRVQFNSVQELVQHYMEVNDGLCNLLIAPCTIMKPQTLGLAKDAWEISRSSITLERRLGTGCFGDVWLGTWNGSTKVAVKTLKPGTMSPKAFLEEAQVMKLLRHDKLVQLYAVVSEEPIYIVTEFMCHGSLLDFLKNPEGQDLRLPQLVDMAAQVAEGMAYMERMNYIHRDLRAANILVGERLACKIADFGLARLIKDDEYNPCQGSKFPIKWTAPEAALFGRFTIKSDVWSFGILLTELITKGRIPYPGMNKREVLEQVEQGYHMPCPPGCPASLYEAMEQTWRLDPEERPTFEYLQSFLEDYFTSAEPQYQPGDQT
Chain of RAC-alpha serine/threonine-protein kinase (Homo sapiens) (P31749 whole entry): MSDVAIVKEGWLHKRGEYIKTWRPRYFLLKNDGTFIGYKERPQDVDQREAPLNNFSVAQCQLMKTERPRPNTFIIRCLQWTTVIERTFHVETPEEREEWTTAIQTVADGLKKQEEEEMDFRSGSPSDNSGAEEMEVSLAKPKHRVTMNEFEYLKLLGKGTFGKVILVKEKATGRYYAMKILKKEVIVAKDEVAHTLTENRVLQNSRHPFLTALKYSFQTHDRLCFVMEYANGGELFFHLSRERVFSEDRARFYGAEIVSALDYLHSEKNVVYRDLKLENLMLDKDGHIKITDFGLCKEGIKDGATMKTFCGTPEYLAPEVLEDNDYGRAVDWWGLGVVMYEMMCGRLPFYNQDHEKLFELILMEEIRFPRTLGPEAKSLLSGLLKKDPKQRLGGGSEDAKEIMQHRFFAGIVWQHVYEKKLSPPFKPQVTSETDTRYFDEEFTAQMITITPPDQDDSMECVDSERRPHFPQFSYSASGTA
Chain of Mitogen-activated protein kinase 13 (Homo sapiens) (O15264 whole entry): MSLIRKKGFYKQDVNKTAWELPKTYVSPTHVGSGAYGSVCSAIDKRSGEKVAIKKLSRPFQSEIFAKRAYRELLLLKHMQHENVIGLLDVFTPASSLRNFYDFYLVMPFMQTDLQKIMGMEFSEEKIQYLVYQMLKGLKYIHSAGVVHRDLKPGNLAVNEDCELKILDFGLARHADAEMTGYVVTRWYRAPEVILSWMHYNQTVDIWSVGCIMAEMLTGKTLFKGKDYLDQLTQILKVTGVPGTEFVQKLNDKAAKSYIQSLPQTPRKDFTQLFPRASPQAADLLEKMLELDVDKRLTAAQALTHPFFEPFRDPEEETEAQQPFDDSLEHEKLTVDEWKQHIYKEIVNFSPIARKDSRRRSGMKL

Compound | inhibition [1] | inhibition [2] | inhibition [3] | inhibition [4] | inhibition [5] | inhibition [6] | inhibition [7] | inhibition [8] | inhibition [9] | inhibition [10] | inhibition [11] | inhibition [12] | inhibition [13] | inhibition [14] | inhibition [15] | inhibition [16] | inhibition [17] | inhibition [18] | inhibition [19] | inhibition [20] | also measured
CCN1CC2(C1)CN(c1ccc(Nc3ncc(F)c(-c4cnn5c4[C@H](C)CCCC5)n3)nc1)C2 | -2% | 3.5% | 2% | -3% | 4.5% | 7.5% | 72% | 10% | 1.5% | 3.5% | 13.5% | 20% | 1% | 32.5% | 41% | 17.5% | 1% | 7.5% | 95% | 7% | inhibition [21]: 8%; inhibition [22]: 5.5%; inhibition [23]: 61.5%
CCN1CCN(Cc2ccc(Nc3ncc(F)c(-c4cc(F)c5nc(C)n(C(C)C)c5c4)n3)nc2)CC1 [ABEMACICLIB] | 3.7% | 7% | 6.5% | 12% | 14.5% | 8% | 60.8% | 13.5% | 14.7% | 9% | 1% | 31% | 6% | 3% | 54.5% | 4.5% | 31.5% | 14.5% | 97.7% | 8.5% | inhibition [21]: 11.4%; inhibition [22]: 8%; inhibition [23]: 25.5%
